Assay results taken from PMC9817100, “Preclinical profiles of SKB264, a novel anti-TROP2 antibody conjugated to topoisomerase inhibitor, demonstrated promising antitumor efficacy compared to IMMU-132” (Frontiers in Oncology, 2022).
pEC50, pIC50, pKd: −log10 of the molar value. Where two headings read alike, the source gives them in different places.

Columns and labels:
DNA topoisomerase I = target: T1, DNA topoisomerase I (Homo sapiens, UniProt P11387); assay: topoisomerase I-mediated DNA relaxation assay (cell-free); type: biochemical; settings: read-out: DNA topoisomerase I inhibition (IC50)
T1 sequence (P11387 1-765): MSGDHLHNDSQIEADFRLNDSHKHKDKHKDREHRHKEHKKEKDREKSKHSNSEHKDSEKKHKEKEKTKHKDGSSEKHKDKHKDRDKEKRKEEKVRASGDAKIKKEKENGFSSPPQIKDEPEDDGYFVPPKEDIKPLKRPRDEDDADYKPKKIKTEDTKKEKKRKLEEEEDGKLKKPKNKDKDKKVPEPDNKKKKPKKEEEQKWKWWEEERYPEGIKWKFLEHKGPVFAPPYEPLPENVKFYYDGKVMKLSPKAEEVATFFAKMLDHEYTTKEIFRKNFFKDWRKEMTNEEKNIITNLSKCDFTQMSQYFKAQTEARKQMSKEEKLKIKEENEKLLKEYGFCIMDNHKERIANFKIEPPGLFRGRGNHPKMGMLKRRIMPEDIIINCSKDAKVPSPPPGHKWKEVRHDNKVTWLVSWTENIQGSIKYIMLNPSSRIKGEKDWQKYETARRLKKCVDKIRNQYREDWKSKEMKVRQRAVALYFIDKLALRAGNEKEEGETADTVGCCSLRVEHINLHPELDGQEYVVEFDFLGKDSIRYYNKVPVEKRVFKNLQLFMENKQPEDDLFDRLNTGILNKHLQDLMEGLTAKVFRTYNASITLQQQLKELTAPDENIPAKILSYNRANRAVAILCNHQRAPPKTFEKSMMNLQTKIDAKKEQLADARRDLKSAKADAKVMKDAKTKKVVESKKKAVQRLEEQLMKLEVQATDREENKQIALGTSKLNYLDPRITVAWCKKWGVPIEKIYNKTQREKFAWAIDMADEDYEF
From the text: SKB264 is a TROP2-targeting ADC, which consists of a recombinant humanized anti-TROP2 antibody and a topoisomerase I inhibitor derived from Belotecan (KL610023), integrated together via a sulfonyl pyrimidine-CL2A-carbonate linker. The payload is conjugated with the antibody through irreversible nucleophilic aromatic substitution by tris (2-carboxyethyl) phosphine hydrochloride (TCEP HCl), a reducing agent that can reduce the interchain disulfide bounds. The drug-to-antibody ratio (DAR) of SKB264 was approximately 7.4, which was determined by the reversed-phase chromatography (RPC), and might be the theoretical maximum drug loading number for conventional interchain cysteine conjugation ( Figure 1B ). SKB264 was designed to release payload KL610023 after internalization by TROP2-expressing tumor cells. The inhibitory effect of KL610023 on topoisomerase I was almost similar to that of SN-38, as measured by a topoisomerase I-mediated DNA relaxation assay ( Figure 1C ).
Figure 1 Structure and characterization of SKB264. […] (B) The distribution of the conjugated drug determined by the reverse-phase chromatography analysis (L-0: Unconjugated light chain, L-1: Light chain conjugated with one payload, H-0: Unconjugated heavy chain, H-1: Heavy chain conjugated with one payload, H-2: Heavy chain conjugated with two payloads, H-3: Heavy chain conjugated with three payloads). […]

HCC1806 xenograft [1] = assay: PK-PD study, single dose, HCC1806 xenograft; type: in vivo, BALB/c nude mice
Protocol: Phoenix WinNonlin 8.1 was used to calculate the PK parameters in the non-compartment model, including t 1/2, T max, C max, AUC0-t, and AUC0-∞. […] The half maximal effective concentration (EC50) and half maximal inhibitory concentration (IC50) were calculated using a nonlinear regression model with sigmoidal fitting. The in vitro antitumor activities of drugs were evaluated by a two-tailed paired t-test.

HCC1806 (TROP2+) = assay: cytotoxic assay (CellTiter-Glo, 72 h) HCC1806; type: cell-based, human; settings: HCC1806, payload comparison, Figure 7C, duplicates; read-out: IC50 inhibition of proliferation of HCC1806 cells
Protocol: Tumor cells were seeded on 96-well plates at the following concentrations: HCC1806 (3,000 cells per well), NCI-N87 (5,000 cells per well), BxPC-3 (2,000 cells per well), Calu-3 (8,000 cells per well), NCI-H23 (TROP2+, 3,000 cells per well), and NCI-H23 (parental, 3,000 cells per well). After overnight incubation, the diluted testing items were added respectively. After 72 h, cell viability was evaluated using a CellTiter-Glo Luminescent Cell Viability Assay (Promega Corp. Madison, WI), following the manufacturer’s instruction.

mouse TROP2 protein = target: T2, mouse TROP2 protein (Mus musculus, UniProt Q8BGV3); assay: ELISA binding to mouse TROP2
T2 sequence (Q8BGV3 25-317): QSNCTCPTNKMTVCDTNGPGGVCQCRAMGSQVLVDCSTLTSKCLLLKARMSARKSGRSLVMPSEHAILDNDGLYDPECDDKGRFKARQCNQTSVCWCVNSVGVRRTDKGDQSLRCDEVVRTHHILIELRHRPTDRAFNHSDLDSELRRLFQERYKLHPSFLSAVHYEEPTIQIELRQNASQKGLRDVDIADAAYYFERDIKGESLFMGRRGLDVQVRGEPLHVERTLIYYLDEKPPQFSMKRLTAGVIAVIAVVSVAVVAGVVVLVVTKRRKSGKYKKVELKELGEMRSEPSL
Protocol: (§1) An enzyme-linked immunosorbent assay (ELISA) was used to evaluate the binding and dynamics affinity. Human TROP2 protein (1 μg/ml) (Sino Biological Inc, Wayne, PA) was coated on a 96-well plate overnight at 4°C. The plate was then blocked by Super block reagent (ScyTek Inc. Logan UT) at room temperature for 1 h. Diluted SKB264, SKB264 mAb, or isotype control (human IgG1 antibody) was added for incubation at 37°C for 1 h. After washing, the diluted (1:10,000) goat anti-human IgG Fc-horseradish peroxidase (HRP) (Abcam, Waltham, MA) was added for further incubation for 45 min at 37°C. Finally, TMB solution was added for absorbance measurement at 450 nm using a SpectraMax Plus384 Microplate reader (Molecular Devices, USA).
(§2) Firstly, the affinities of SKB264 and SKB264 mAb to TROP2 of different species were evaluated by ELISA. […] Therefore, we performed the pharmacokinetic experiments in cynomolgus monkeys.

[2] = system: TROP2-positive cells NCI-N87; assay: cell-level binding to NCI-N87 by FACS; set-up: species or system human; settings: read-out: Antibody EC50 determination on NCI-N87
Protocol: (§3) To examine whether the anti-TROP2 mAb plays a targeting role via specifically recognizing the highly expressed TROP2 on the surface of tumor cells, the following experiments were conducted ([17]).
(§4) Figure 2 In vitro activities of SKB264. (A) Binding to human TROP2 estimated by ELISA (duplicates, mean ± SEM). (B) SKB264 binding to HCC1806 and NCI-N87 estimated by FACS. (C) Internalization of SKB264 or SKB264 mAb in HCC1806 and NCI-N87 cells. (D) In vitro cell growth inhibitory activity (triplicates, mean ± SEM) in HCC1806, NCI-N87, BxPC-3, Calu-3, NCI-H23 (TROP2+), and NCI-H23 (parental) cells.

NCI-N87 cells = assay: endocytosis (internalization) experiment in NCI-N87; type: cell-based, human
Protocol: as §3, §4

rat TROP2 protein = assay: ELISA binding to rat TROP2
Protocol: as §1, §2

HCC1806 cells = assay: endocytosis (internalization) experiment in HCC1806; type: cell-based, human
Protocol: as §3, §4

monkey TROP2 = assay: ELISA binding to monkey TROP2
Protocol: as §1, §2

Human TROP2 protein [3] = target: T3, Human TROP2 protein (Homo sapiens, UniProt P09758); assay: ELISA binding to human TROP2 protein; set-up: purchased Sino Biological Inc, Wayne, PA
T3 sequence (P09758 27-323): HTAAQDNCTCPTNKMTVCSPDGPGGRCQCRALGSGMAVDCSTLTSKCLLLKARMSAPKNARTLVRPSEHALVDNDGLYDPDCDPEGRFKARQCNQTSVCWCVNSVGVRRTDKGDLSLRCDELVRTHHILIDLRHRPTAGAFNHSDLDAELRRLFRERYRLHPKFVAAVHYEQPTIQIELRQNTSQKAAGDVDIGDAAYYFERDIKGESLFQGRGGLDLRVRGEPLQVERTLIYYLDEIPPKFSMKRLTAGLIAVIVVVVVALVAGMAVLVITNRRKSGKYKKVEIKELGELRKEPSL
Protocol: as §1

[4] = system: TROP2-positive cells HCC1806; assay: cell-level binding to HCC1806 by FACS; set-up: species or system human; settings: read-out: Antibody EC50 determination on HCC1806
Protocol: as §3, §4

[5] = set-up: method as in PMID 25494821; settings: cited from earlier work
HCC1806 xenograft [6] = settings: for TGI: HCC1806 xenograft (Figure 7D)
Protocol: Female BALB/c nude mice (Charles River, Beijing, China) were inoculated with 2×10^6 HCC1806 cells in the right front flank. To evaluate in vivo efficacy of ADC, when the average tumor size reached about 120 mm^3, mice were randomized into 7 groups (n = 6 mice/group). The mice were treated with SKB264 or IMMU-132 at doses of 1, 3, and 10 mg/kg twice a week for six times via i.v. injection. To evaluate the PK-PD of ADC, when the average tumor size reached approximately 270 mm^3, mice were randomized into three groups (n = 5/time point). The mice received a single i.v. injection of control hIgG1, SKB264, or IMMU-132 (3 mg/kg), respectively. Blood samples (from five mice) were collected at 1 h, 4 h, 8 h, 24 h, 48 h, 96 h, 192 h, or 336 h post-dosing to detect the concentration of payload at each time point. The rate of TGI (n = 5 mice, measured at endpoint, i.e., 336 h) was determined to evaluate the antitumor efficacy of ADC. Body weight changes and mortality were also recorded to evaluate the tolerability of the testing items.

[7] = in vitro stability in monkey plasma (payload release); type: in vitro ADME, cynomolgus monkeys; settings: cynomolgus monkey plasma, 50 μg/ml, 37°C, 48-h incubation
Human TROP2 protein [8] = target: T3, Human TROP2 protein; assay: SPR dynamic affinity to human TROP2; type: binding; settings: read-out: K d (KD) to recombinant human TROP2
Protocol: Surface plasmon resonance (SPR) was an alternative method to evaluate dynamic affinity, in which human TROP2 protein was captured with goat anti-human IgG Ab immobilized onto a CM5 sensor chip (Biacore Inc., Raleigh, NC). Serial titrations of SKB264 or IMMU-132 ranging from 0.0823 to 2.22 nM and running buffer were individually injected over the surface, which was captured human TROP2 for an association phase of 120 s, followed by a 600-s dissociation time. Kinetic parameters were calculated using the BIA evaluation software with the average values of two datasets collected on separate days. Association (K a) and dissociation (K d) rate constant values were calculated by fitting analysis assuming a Langmuir binding model ([16]) and a stoichiometry of (1:1) to determine K D (equilibrium dissociation constant) values.

[9] = in vitro stability in human plasma (payload release); type: in vitro ADME; settings: 50 μg/ml, 37°C, 48-h incubation
[10] = system: triple-negative breast cancer; set-up: method as in PMID 28291390, PMID 25944802; settings: drug-resistant triple-negative breast cancer (TNBC) patients; cited from earlier work
[11] = set-up: method as in PMID 25944802; settings: tumor-bearing mice model; previous studies; cited from earlier work
[12] = plasma, payload after single i.v. 3 mg/kg SKB264 (KL610023) or IMMU-132 (SN-38), HCC1806 tumor-bearing mice, mean, n = 5
[13] = tumor, payload after single i.v. 3 mg/kg SKB264 (KL610023) or IMMU-132 (SN-38), HCC1806 tumor-bearing mice, mean, n = 5

CCc1c2c(nc3ccc(O)cc13)-c1cc3c(c(=O)n1C2)COC(=O)[C@]3(O)CC [SN-38]
pIC50 (DNA topoisomerase I): 5.96
AUC0-∞ of payload (HCC1806 xenograft [1]; [12]): 0.02217 µg·h/mL
AUClast of payload (HCC1806 xenograft [1]; [12]): 0.01926 µg·h/mL
C max of payload (HCC1806 xenograft [1]; [12]): 1.32 ng/mL
t 1/2 of payload (HCC1806 xenograft [1]; [12]): 15.5 h
AUC0-∞ of payload (HCC1806 xenograft [1]; [13]): 448 ng·h/g
AUClast of payload (HCC1806 xenograft [1]; [13]): 410 ng·h/g
C max of payload (HCC1806 xenograft [1]; [13]): 4.5 ng/g
T max of payload (HCC1806 xenograft [1]; [13]): 24 h
t 1/2 of payload (HCC1806 xenograft [1]; [13]): 57.4 h
pIC50 (HCC1806 (TROP2+)): 8.58

SKB264 mAb: humanized anti-TROP2 mAb with the same amino acid sequence as the antibody of IMMU-132
EC50 binding to mouse TROP2 protein (mouse TROP2 protein): > 5,000 ng/ml
pEC50 [2]: 8.09
percentage of endocytosis (NCI-N87 cells): increased over time
EC50 binding to rat TROP2 protein (rat TROP2 protein): > 5,000 ng/ml
percentage of endocytosis (HCC1806 cells): increased over time
EC50 of the affinity with monkey TROP2 (monkey TROP2): 3.399 ng/mL
EC50 determination on Human TROP2 (Human TROP2 protein [3]): 2.731 ng/mL
pEC50 [4]: 7.79

sacituzumab govitecan [IMMU-132]
half-life in serum [5]: ~ 1 day
TGI (HCC1806 xenograft [6]; 1 mg/kg i.v. twice a week for six times): 48.12%
TGI (HCC1806 xenograft [6]; 3 mg/kg i.v. twice a week for six times): 70.64%
TGI (HCC1806 xenograft [6]; 10 mg/kg i.v. twice a week for six times): 153.27%
body weight of the experimental mice (HCC1806 xenograft [6]; HCC1806 xenograft, all treatment groups 1, 3, 10 mg/kg): no significant change
release rate of the payload [7]: ~100%
pKd (Human TROP2 protein [8]): 9.53
release rate of the payload [9]: ~100%
TGI (HCC1806 xenograft [1]; HCC1806 xenograft, single i.v. 3 mg/kg, after 13 days (336 h)): 21.05%
objective response rate (ORR) [10]: 33%
half-life [11]: 14 h
